What was measured:
TS RNA = test: Fluorescence anisotropy competition binding (CRP displacement) to TS RNA; settings: competition with CRP probe, 20° C., pH 7.5; read-out: binding force (bond constant KD) against TS RNA
Procedure: (§1) The RNA of the present invention was prepared with sense DNA of 16S rRNA (sequence listing 1) and an antisense DNA of 16S rRNA (sequence listing 2); a sense DNA of RRE RNA (sequence listing 3) and an antisense DNA of RRE RNA (sequence listing 4); and a sense DNA of TS RNA (sequence listing 5) and an antisense DNA of TS RNA (sequence listing 6). […]
(§2) The paromomycin bonded with tetramethylrhodamine (hereinafter referred to as […]) is used as a luminescence fluorescent probe. The luminescence anisotropy is measured by establishing a thermostat of 20° C. at the Perkin-Elmer LS-50B luminescence spectroscope. The luminescence absorptance of CRP is 510 nm and its luminescence fluorescent is observed at 550 nm. […] The luminescence was measured at an elution buffer using 140 mM NaCl, 5 mM KCl, 1 mM MgCl2, and 20 mM HEPES pH 7.5. […]
(§3) A is the luminescence anisotropy value of CRP when RNA is present,
(§4) A0 is the luminescence anisotropy value of CRP when RNA is not present,
(§5) DA is the difference of luminescence anisotropy value when RNA is not present between various RNA concentrations, […]
(§6) If the newly prepared compound is added to the solution after inducing the bonding of the said RNA and CRP, CRP is separated from RNA by a competitive bonding reaction and the compound to be measured achieves a KD value by bonding with RNA. […]
(§7) [Aminoglycoside]0 is the initial concentration of aminoglycoside to be measured, […]

16S rRNA = test: Fluorescence anisotropy competition binding (CRP displacement) to 16S rRNA; settings: competition with CRP probe, 20° C., pH 7.5; read-out: binding force (bond constant KD) against 16s rRNA
Procedure: as §1, §2, §3, §4, §5, §6, §7

RRE RNA = test: Fluorescence anisotropy competition binding (CRP displacement) to RRE RNA; design: species or system HIV; settings: competition with CRP probe, 20° C., pH 7.5; read-out: binding force (bond constant KD) against RRE RNA
Procedure: as §1, §2, §3, §4, §5, §6, §7

Measured: Kd

Neomycin [reference compound]
> 2 µM: all assays above
